Target: T1, K-Ras G12D (Homo sapiens, UniProt P01116, G12D)
T1 construct: AGS (Cobioer, CBP60476) cell lines which harbor KRAS G12D mutation; host or cells: AGS
Test: p-ERK Cellular 1-Plate Assay (AlphaLISA SureFire Ultra p-ERK1/2) in AGS cells
Format: cell-based
Settings: AGS cells harboring KRAS G12D mutation, 3 h at 37° C., 5,000 cells per well
Experimental: p-ERK Cellular 1-Plate Assay
The ability of the compound of Formula (I) or a pharmaceutically acceptable salt thereof (test compound) to inhibit K-Ras G12D activity was tested using AGS (Cobioer, CBP60476) cell lines which harbor KRAS G12D mutation as described below.
AGS (Cobioer, CBP60476) were seeded in 384-well plates and cultured overnight (5,000 cells per well, 40 μl total volume). The following morning, cells were treated with test compound, with starting concentration at 10 μM and 3-fold dilution down to 0.5 nM for 3 h at 37° C. DMSO treatment served as control, p-ERK was then measured using AlphaLISA SureFire Ultra p-ERK1/2 (Thr202/Tyr204) Assay Kit (Perkin Elmer, cat #ALSU-PERK) following the manufacturer's instruction as follows.
Briefly, the culture medium was removed and 10 μl 1× lysis buffer was added to each well, followed by 10 minutes incubation on a plate shaker at room temperature. Acceptor mixture was prepared according to manufacturer's instruction. 5 μl acceptor mixture was added to the cell lysate and the plate was wrapped with foil, spun at 500 rpm for 10 s and incubated at RT for 60 min. Donor mixture was prepared under subdued light. 5 μl donor mixture was added to the cell lysate and the plate was spun at 500 rpm for 10s and incubated at RT for another 60 min. in the dark. Signal was then measured on a EnVision 2105 multimode plate reader. […]

T1 sequence (P01116 1-188 isoform P01116-2 G12D): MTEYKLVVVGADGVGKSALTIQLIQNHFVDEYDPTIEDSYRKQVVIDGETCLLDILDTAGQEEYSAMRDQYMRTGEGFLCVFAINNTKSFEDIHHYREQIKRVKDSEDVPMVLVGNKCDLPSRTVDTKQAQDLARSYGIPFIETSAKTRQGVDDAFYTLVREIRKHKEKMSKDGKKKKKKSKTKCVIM

EC50 | SMILES
170 nM | C#Cc1c(F)ccc2cccc(-c3ncc4c(N5CC6CCC(C)(C5)N6)nc(OC[C@]56CC(=C)CN5C[C@@H](F)C6)nc4c3F)c12 (stereo partly drawn) [Example 30, 7-(8-ethynyl-7-fluoronaphthalen-1-yl)-8-fluoro-2-(((2S,7aR)-2-fluoro-6-methylenetetrahydro-1H-pyrrolizin-7a(5H)-yl)methoxy)-4-(1-methyl-3,8-diazabicyclo[3.2.1]octan-3-yl)pyrido[4,3-d]pyrimidine]
> 100 nM | C#Cc1c(F)ccc2cccc(-c3ncc4c(N5CC6CCC5CN6)nc(OC[C@]56CC(=C)CN5C[C@H](F)C6)nc4c3F)c12 (stereo partly drawn) [Example 31, 2-(7-(8-ethynyl-7-fluoronaphthalen-1-yl)-8-fluoro-2-(((2R,7aR)-2-fluoro-6-methylenetetrahydro-1H-pyrrolizin-7a(5H)-yl)methoxy)pyrido[4,3-d]pyrimidin-4-yl)-2,5-diazabicyclo[2.2.2]octane]
